Drawing on PubChem BioAssay (NCI), this text covers TGI and GI50 for 4 compounds.

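Tested at 5 concentrations; 48 h exposure; 96-well plates; endpoints linearly interpolated, else capped at highest concentration. GI50: concentration for 50% inhibition of growth. TGI marks complete inhibition of growth.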

The subject of one experiment is NCI-H226 lung. The experiment in a line: growth of human tumour cells (NCI), 48 h.
In turn, `C[C@]12CC[C@H](O)C[C@H]1CC[C@@H]1[C@@H]2CC[C@]2(C)[C@@H](C3=CC(=O)OC3)CC[C@]12O` registered a TGI of 2.83 µM.

The subject of the next experiment is NCI-H23 lung. The experiment in a line: growth of human tumour cells (NCI), 48 h.
`Cc1ccc(S(=O)(=O)OCC(=O)O)cc1` yielded a TGI above 100 µM.

`O=c1[nH]cnc2cccc(Cl)c12`: the TGI was above 100 µM.

As to `C=C1C(=O)CC2C(=O)C(C)(O)CC/C=C(\C)C(=O)CC12` (configuration not stated), the TGI is 45.7 µM.

Another experiment relates to NCI-H460 lung. Description: growth of human tumour cells (NCI), 48 h.
Take `Cc1ccc(S(=O)(=O)OCC(=O)O)cc1`: the TGI was above 100 µM.

With `O=c1[nH]cnc2cccc(Cl)c12`, the TGI was above 100 µM.

On to `C=C1C(=O)CC2C(=O)C(C)(O)CC/C=C(\C)C(=O)CC12` (configuration not stated), for which the TGI is above 100 µM.

As for `C[C@]12CC[C@H](O)C[C@H]1CC[C@@H]1[C@@H]2CC[C@]2(C)[C@@H](C3=CC(=O)OC3)CC[C@]12O`, the TGI amounted to 0.139 µM.

The next experiment deals with NCI-H522 lung. The experiment in a line: growth of human tumour cells (NCI), 48 h.
The compound `Cc1ccc(S(=O)(=O)OCC(=O)O)cc1` displayed a TGI above 100 µM.

The compound `O=c1[nH]cnc2cccc(Cl)c12` showed a TGI above 100 µM.

On to `C=C1C(=O)CC2C(=O)C(C)(O)CC/C=C(\C)C(=O)CC12` (configuration not stated), for which the TGI amounted to 17.1 µM.

`C[C@]12CC[C@H](O)C[C@H]1CC[C@@H]1[C@@H]2CC[C@]2(C)[C@@H](C3=CC(=O)OC3)CC[C@]12O`: the TGI came out at 0.436 µM.

For another experiment, the system named is NCI/ADR-RES ovarian. The experiment in a line: growth of human tumour cells (NCI), 48 h.
On to `Cc1ccc(S(=O)(=O)OCC(=O)O)cc1`, for which the TGI is above 100 µM.

`O=c1[nH]cnc2cccc(Cl)c12` displayed a TGI above 100 µM.

For `C=C1C(=O)CC2C(=O)C(C)(O)CC/C=C(\C)C(=O)CC12` (configuration not stated), the TGI was above 100 µM.

`C[C@]12CC[C@H](O)C[C@H]1CC[C@@H]1[C@@H]2CC[C@]2(C)[C@@H](C3=CC(=O)OC3)CC[C@]12O` showed a TGI of 0.573 µM.

Another experiment relates to OVCAR-3 ovarian. Description: growth of human tumour cells (NCI), 48 h.
`Cc1ccc(S(=O)(=O)OCC(=O)O)cc1` came in with a TGI above 100 µM.

`O=c1[nH]cnc2cccc(Cl)c12` came in with a TGI above 100 µM.

`C=C1C(=O)CC2C(=O)C(C)(O)CC/C=C(\C)C(=O)CC12` (configuration not stated) yielded a TGI of 59 µM.

In turn, `C[C@]12CC[C@H](O)C[C@H]1CC[C@@H]1[C@@H]2CC[C@]2(C)[C@@H](C3=CC(=O)OC3)CC[C@]12O` displayed a TGI of 0.204 µM.

The next experiment has as its system OVCAR-4 ovarian. The experiment in a line: growth of human tumour cells (NCI), 48 h.
`Cc1ccc(S(=O)(=O)OCC(=O)O)cc1` yielded a TGI above 100 µM.

Turning to `O=c1[nH]cnc2cccc(Cl)c12`, the TGI is above 100 µM.

In turn, `C=C1C(=O)CC2C(=O)C(C)(O)CC/C=C(\C)C(=O)CC12` (configuration not stated) registered a TGI above 58.2 µM.

`C[C@]12CC[C@H](O)C[C@H]1CC[C@@H]1[C@@H]2CC[C@]2(C)[C@@H](C3=CC(=O)OC3)CC[C@]12O`: the GI50 was 0.0389 µM and the TGI came out at 0.226 µM.

The subject of the next experiment is OVCAR-5 ovarian. The experiment in a line: growth of human tumour cells (NCI), 48 h.
On to `Cc1ccc(S(=O)(=O)OCC(=O)O)cc1`, for which the TGI was above 100 µM.

Compound `O=c1[nH]cnc2cccc(Cl)c12` came in with a TGI above 100 µM.

As to `C=C1C(=O)CC2C(=O)C(C)(O)CC/C=C(\C)C(=O)CC12` (configuration not stated), the TGI turned out to be 47.2 µM.

Turning to `C[C@]12CC[C@H](O)C[C@H]1CC[C@@H]1[C@@H]2CC[C@]2(C)[C@@H](C3=CC(=O)OC3)CC[C@]12O`, the TGI amounted to 1.93 µM.

The test system of a further experiment is OVCAR-8 ovarian. Description: growth of human tumour cells (NCI), 48 h.
In turn, `Cc1ccc(S(=O)(=O)OCC(=O)O)cc1` displayed a TGI above 100 µM.

`O=c1[nH]cnc2cccc(Cl)c12`: the TGI is above 100 µM.

`C=C1C(=O)CC2C(=O)C(C)(O)CC/C=C(\C)C(=O)CC12` (configuration not stated): the TGI was above 63.6 µM.

As to `C[C@]12CC[C@H](O)C[C@H]1CC[C@@H]1[C@@H]2CC[C@]2(C)[C@@H](C3=CC(=O)OC3)CC[C@]12O`, the TGI was determined as 1.07 µM.

The subject of another experiment is PC-3 prostate. The experiment in a line: growth of human tumour cells (NCI), 48 h.
With `Cc1ccc(S(=O)(=O)OCC(=O)O)cc1`, the TGI was above 100 µM.

In turn, `O=c1[nH]cnc2cccc(Cl)c12` displayed a TGI above 100 µM.

`C=C1C(=O)CC2C(=O)C(C)(O)CC/C=C(\C)C(=O)CC12` (configuration not stated) showed a TGI of 83 µM.

For `C[C@]12CC[C@H](O)C[C@H]1CC[C@@H]1[C@@H]2CC[C@]2(C)[C@@H](C3=CC(=O)OC3)CC[C@]12O`, the GI50 is 0.178 µM and the TGI was 3.7 µM.

For the next experiment, the system named is RPMI-8226 leukemia. The experiment in a line: growth of human tumour cells (NCI), 48 h.
The compound `Cc1ccc(S(=O)(=O)OCC(=O)O)cc1` registered a TGI above 100 µM.

`C=C1C(=O)CC2C(=O)C(C)(O)CC/C=C(\C)C(=O)CC12` (configuration not stated): the TGI amounted to 82.9 µM.

Regarding `C[C@]12CC[C@H](O)C[C@H]1CC[C@@H]1[C@@H]2CC[C@]2(C)[C@@H](C3=CC(=O)OC3)CC[C@]12O`, the TGI turned out to be 0.558 µM.

The next experiment has as its system RXF 393 renal. The experiment in a line: growth of human tumour cells (NCI), 48 h.
Compound `Cc1ccc(S(=O)(=O)OCC(=O)O)cc1` returned a TGI above 100 µM.

On to `O=c1[nH]cnc2cccc(Cl)c12`, for which the TGI was above 100 µM.

Compound `C=C1C(=O)CC2C(=O)C(C)(O)CC/C=C(\C)C(=O)CC12` (configuration not stated) registered a TGI of 40.3 µM.

On to `C[C@]12CC[C@H](O)C[C@H]1CC[C@@H]1[C@@H]2CC[C@]2(C)[C@@H](C3=CC(=O)OC3)CC[C@]12O`, for which the TGI amounted to 0.0681 µM.

The next experiment concerns SF-268 CNS. The experiment in a line: growth of human tumour cells (NCI), 48 h.
With `Cc1ccc(S(=O)(=O)OCC(=O)O)cc1`, the TGI is above 100 µM.

For the compound `O=c1[nH]cnc2cccc(Cl)c12`, the TGI was above 100 µM.

In turn, `C=C1C(=O)CC2C(=O)C(C)(O)CC/C=C(\C)C(=O)CC12` (configuration not stated) yielded a TGI above 76.1 µM.

In turn, `C[C@]12CC[C@H](O)C[C@H]1CC[C@@H]1[C@@H]2CC[C@]2(C)[C@@H](C3=CC(=O)OC3)CC[C@]12O` returned a TGI of 0.226 µM.

Another experiment has as its system SF-295 CNS. Description: growth of human tumour cells (NCI), 48 h.
Compound `Cc1ccc(S(=O)(=O)OCC(=O)O)cc1` gave a TGI above 100 µM.

`O=c1[nH]cnc2cccc(Cl)c12`: the TGI was above 100 µM.

Consider `C=C1C(=O)CC2C(=O)C(C)(O)CC/C=C(\C)C(=O)CC12` (configuration not stated), for which the TGI was above 100 µM.

For `C[C@]12CC[C@H](O)C[C@H]1CC[C@@H]1[C@@H]2CC[C@]2(C)[C@@H](C3=CC(=O)OC3)CC[C@]12O`, the GI50 was 0.0292 µM and the TGI came to 0.0959 µM.

A further experiment concerns SF-539 CNS. The experiment in a line: growth of human tumour cells (NCI), 48 h.
`O=c1[nH]cnc2cccc(Cl)c12` gave a TGI above 100 µM.

Compound `C=C1C(=O)CC2C(=O)C(C)(O)CC/C=C(\C)C(=O)CC12` (configuration not stated) had a TGI of 59.8 µM.

In turn, `C[C@]12CC[C@H](O)C[C@H]1CC[C@@H]1[C@@H]2CC[C@]2(C)[C@@H](C3=CC(=O)OC3)CC[C@]12O` gave a TGI of 0.16 µM.
